Here are results for 4 compounds from PubChem BioAssay AID2060905 (Molecular Pharmacology Branch, DTP, NCI, 2025).

The assay has as its system 282377-053-R-J1-PDC complex spheroid viability. Briefly: Anticancer human tumor 282377-053-R-J1-PDC patient-derived colon adenocarcinoma cell line growth inhibition [RAS]. Conditions: for viability, T/C: stronger effect = lower value. A digest of the protocol: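 Tumour cells grown as complex spheroids with HUVEC endothelial cells and mesenchymal stem cells, treated with RAS pathway inhibitor combinations. Each agent spans half-log steps from near clinical Cmax, or 10 microM where Cmax is unknown.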

Each structure is given as a SMILES string.
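Note: spheroids exposed to agents for seven days before readout.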
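Throughout, for viability, T/C: luminescence viability as percent of DMSO vehicle control wells.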

One may read the IC50 as the concentration that gives 50% inhibition. For orientation: viability, T/C means the result in the treated group divided by that in the control group, in per cent. With `CC(=O)OC12COC1CC(O)C1(C)C(=O)C(O)C3=C(C)C(OC(=O)C(O)C(NC(=O)OC(C)(C)C)c4ccccc4)CC(O)(C(OC(=O)c4ccccc4)C21)C3(C)C` (stereo not drawn) + C=CC(=O)N1CCN(c2nc(OCC3CCCN3C)nc3c(F)c(-c4nc(N)cc(C)c4C(F)(F)F)c(Cl)cc23)C(C)C1, the IC50 by setting is: (curve of first compound, second compound 0.00316 µM) less than 31.6 nM; (curve of first compound, second compound 0.01 µM) less than 31.6 nM; (curve of first compound, second compound 0.0316 µM) less than 31.6 nM; (curve of first compound, second compound 0.1 µM) less than 31.6 nM; (curve of first compound, second compound 0.316 µM) less than 31.6 nM; (curve of first compound, second compound 1 µM) less than 31.6 nM. Also, the viability, T/C was 24.3% (second compound 0.00316 µM, first compound 0.0316 µM); 19.9% (second compound 0.00316 µM, first compound 0.1 µM); 16.3% (second compound 0.00316 µM, first compound 0.316 µM); 29.4% (second compound 0.00316 µM, first compound 1 µM); 39.7% (second compound 0.00316 µM, first compound 3.16 µM); 54.2% (second compound 0.00316 µM, first compound 10 µM). Besides, the viability, T/C by setting is: (second compound 0.01 µM, first compound 0.0316 µM) 25.9%; (second compound 0.01 µM, first compound 0.1 µM) 18%; (second compound 0.01 µM, first compound 0.316 µM) 22.7%; (second compound 0.01 µM, first compound 1 µM) 27.5%; (second compound 0.01 µM, first compound 3.16 µM) 38.6%; (second compound 0.01 µM, first compound 10 µM) 51.8%. Also, the viability, T/C (second compound 0.0316 µM, first compound 0.0316 µM) was 22.9%; the viability, T/C (second compound 0.0316 µM, first compound 0.1 µM) was 20.5%; the viability, T/C (second compound 0.0316 µM, first compound 0.316 µM) was 18.1%; the viability, T/C (second compound 0.0316 µM, first compound 1 µM) was 26.9%; the viability, T/C (second compound 0.0316 µM, first compound 3.16 µM) was 34.2%; the viability, T/C (second compound 0.0316 µM, first compound 10 µM) was 57.8%. In addition, the viability, T/C is 24.1% (second compound 0.1 µM, first compound 0.0316 µM); 21.2% (second compound 0.1 µM, first compound 0.1 µM); 20.1% (second compound 0.1 µM, first compound 0.316 µM); 28.1% (second compound 0.1 µM, first compound 1 µM); 38.4% (second compound 0.1 µM, first compound 3.16 µM); 57.3% (second compound 0.1 µM, first compound 10 µM). For the same compound, the viability, T/C (second compound 0.316 µM, first compound 0.0316 µM) is 22%; the viability, T/C (second compound 0.316 µM, first compound 0.1 µM) is 21.6%; the viability, T/C (second compound 0.316 µM, first compound 0.316 µM) was 24.1%; the viability, T/C (second compound 0.316 µM, first compound 1 µM) was 25.5%; the viability, T/C (second compound 0.316 µM, first compound 3.16 µM) is 45.7%; the viability, T/C (second compound 0.316 µM, first compound 10 µM) was 53.6%. The viability, T/C was 27.8% (second compound 1 µM, first compound 0.0316 µM); 19.3% (second compound 1 µM, first compound 0.1 µM); 28.1% (second compound 1 µM, first compound 0.316 µM); 38% (second compound 1 µM, first compound 1 µM); 44% (second compound 1 µM, first compound 3.16 µM); 58.6% (second compound 1 µM, first compound 10 µM).

Regarding `C=CC(=O)N1CCN(c2nc(OCC3CCCN3C)nc3c(F)c(-c4nc(N)cc(C)c4C(F)(F)F)c(Cl)cc23)C(C)C1` (stereo not drawn), the viability, T/C runs as follows: (compound 0.0316 µM) 105% [middle of 12 runs]; (compound 0.316 µM) 100% [middle of 12 runs]. Moreover, the IC50 reads like this: (compound alone, run of 06/10/2024) greater than 1000 nM; (curve of compound) greater than 1000 nM.

Turning to `CC(C)NCC(C(=O)N1CCN(c2ncnc3c2C(C)CC3O)CC1)c1ccc(Cl)cc1` (stereo not drawn), the viability, T/C by setting is: (compound 0.0316 µM) 95.3% [middle of 4 runs]; (compound 1 µM) 94.8% [middle of 4 runs]; (compound 3.16 µM) 90.4% [middle of 4 runs]; (compound 10 µM) 80.6% [middle of 4 runs]. Also, the IC50 (curve of compound) was greater than 10000 nM.

`NC1c2ccccc2OC12CCN(c1cnc3c(N4CCCc5ncccc54)n[nH]c3n1)CC2` (stereo not drawn) + CCn1c(-c2cccnc2C(C)OC)c2c3cc(ccc31)N1CCOC(CC(NC(=O)C(C(C)C)N(C)C(=O)C3(F)CCN(C(=O)C#CC(C)(C)N(C)C)CC3)C(=O)N3CCCC(N3)C(=O)OCC(C)(C)C2)C1: the half-inhibitory concentration (IC50) runs as follows: (curve of first compound, second compound 0.000949 µM) greater than 10000 nM; (curve of first compound, second compound 0.003 µM) greater than 10000 nM; (curve of first compound, second compound 0.00949 µM) greater than 10000 nM; (curve of first compound, second compound 0.03 µM) greater than 10000 nM; (curve of first compound, second compound 0.0949 µM) greater than 10000 nM; (curve of first compound, second compound 0.3 µM) greater than 10000 nM. Also, the viability, T/C is 103% (second compound 0.000949 µM, first compound 0.0316 µM); 104% (second compound 0.000949 µM, first compound 0.1 µM); 99.5% (second compound 0.000949 µM, first compound 0.316 µM); 101% (second compound 0.000949 µM, first compound 1 µM); 110% (second compound 0.000949 µM, first compound 3.16 µM); 125% (second compound 0.000949 µM, first compound 10 µM). The viability, T/C is, setting by setting: (second compound 0.003 µM, first compound 0.0316 µM) 101%; (second compound 0.003 µM, first compound 0.1 µM) 100%; (second compound 0.003 µM, first compound 0.316 µM) 94.7%; (second compound 0.003 µM, first compound 1 µM) 100%; (second compound 0.003 µM, first compound 3.16 µM) 104%; (second compound 0.003 µM, first compound 10 µM) 103%. The viability, T/C is 96.5% (second compound 0.00949 µM, first compound 0.0316 µM); 104% (second compound 0.00949 µM, first compound 0.1 µM); 97.9% (second compound 0.00949 µM, first compound 0.316 µM); 114% (second compound 0.00949 µM, first compound 1 µM); 98.4% (second compound 0.00949 µM, first compound 3.16 µM); 71.9% (second compound 0.00949 µM, first compound 10 µM). Besides, the viability, T/C reads like this: (second compound 0.03 µM, first compound 0.0316 µM) 91.9%; (second compound 0.03 µM, first compound 0.1 µM) 101%; (second compound 0.03 µM, first compound 0.316 µM) 116%; (second compound 0.03 µM, first compound 1 µM) 94.8%; (second compound 0.03 µM, first compound 3.16 µM) 86%; (second compound 0.03 µM, first compound 10 µM) 110%. The viability, T/C is 91.6% (second compound 0.0949 µM, first compound 0.0316 µM); 123% (second compound 0.0949 µM, first compound 0.1 µM); 104% (second compound 0.0949 µM, first compound 0.316 µM); 97.9% (second compound 0.0949 µM, first compound 1 µM); 99% (second compound 0.0949 µM, first compound 3.16 µM); 118% (second compound 0.0949 µM, first compound 10 µM). Moreover, the viability, T/C (second compound 0.3 µM, first compound 0.0316 µM) was 92.6%; the viability, T/C (second compound 0.3 µM, first compound 0.1 µM) is 88.4%; the viability, T/C (second compound 0.3 µM, first compound 0.316 µM) is 95.5%; the viability, T/C (second compound 0.3 µM, first compound 1 µM) is 96.8%; the viability, T/C (second compound 0.3 µM, first compound 3.16 µM) is 125%; the viability, T/C (second compound 0.3 µM, first compound 10 µM) was 141%.
